Each structure is given as a SMILES string.

What is called IC50 is the point on the concentration scale where inhibition reaches its midpoint. Read a high IC50 as a need for much substance.

Type in all cases: functional, cell-based
The subject of one assay is A549. The assay can be described thus: Cytotoxicity against human A549 cells by MTT colorimetric method. In general terms: Tetrazolium assays rely on reduction of a dye to a coloured formazan, in cell work by metabolically active cells.
For a further assay, the system named is MG-63. The assay is described as follows: Cytotoxicity against human MG63 cells by MTT colorimetric method.
For a further assay, the system named is LoVo. The assay can be described thus: Cytotoxicity against human LoVo cells by MTT colorimetric method.

For `COc1cc(OC)c2c(c1)C(=O)[C@@H]1C[C@@H](O)C[C@@]2(O)[C@@H]1CO`, the IC50 with A549, in the assay with MG-63 and with LoVo was over 97.4 µM throughout.

`COc1cccc2c1C(=O)c1c(O)c3c(c(O)c1C2=O)C[C@@](O)(C(=O)CO)C[C@@H]3O[C@H]1C[C@H](N)[C@H](O)[C@H](C)O1` [DOXORUBICIN]: the IC50 in the assay with MG-63 and with LoVo was 2.7 µM each time.
